According to US6737383B1, “Herbicidal oxadiazolidines” (priority 1999, dated 2004):

Assays:
winter wheat [1] = test: Test E winter wheat; format: in vivo, Triticum aestivum; settings: Postemergence; for Plant response rating, Wheat (winter): 0 to 100 scale, 0 is no effect, 100 is complete control; for Wheat (winter) plant response rating: Rate 250 g/ha, 0 to 100 scale where 0 is no effect and 100 is complete control
Procedure, shortened: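 Compound formulated with surfactant in a non-phytotoxic solvent (postemergence: young 1- to 4-leaf plants); held in greenhouse approx. 21–28 days; visual assessment against untreated plants.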

winter wheat [2] = test: Test E winter wheat; format: in vivo, Triticum aestivum; settings: Preemergence; for Wheat (winter) plant response rating (0 to 100 scale): Rate 250 g/ha
winter barley = test: Test E winter barley; format: in vivo, Hordeum vulgare; settings: Preemergence; for Barley (winter) plant response rating (0 to 100 scale): Rate 250 g/ha
crabgrass = test: Test B pre/postemergence crabgrass; format: in vivo, Digitaria sanguinalis
Procedure, shortened: (§1)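 Response is a visual 0-to-10 score relative to untreated plants, where 0 means no effect and 10 means complete control, taken twelve to sixteen days after application. Treatments went onto soil at planting and onto foliage of 1- to 4-leaf plants, using a surfactant-containing non-phytotoxic solvent.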

duck salad = test: Test B flood test duck salad; format: in vivo, Heteranthera limosa
Procedure, shortened: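 Read-out is a visual response score from 0 (no effect) to 10 (complete control), assigned by comparison with untreated controls. Treatment was applied at the 2-leaf stage, and plants stayed in the greenhouse for twelve to sixteen days before scoring.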

blackgrass = test: Test E blackgrass; format: in vivo, Alopecurus myosuroides; settings: Preemergence; for Blackgrass plant response rating (0 to 100 scale): Rate 250 g/ha
wheat = test: Test B pre/postemergence wheat; format: in vivo, Triticum aestivum
Procedure, shortened: as §1

wild oat = test: Test E wild oat; format: in vivo, Avena fatua; settings: Preemergence; for Wild oat plant response rating (0 to 100 scale): Rate 250 g/ha
giant foxtail = test: Test B pre/postemergence giant foxtail; format: in vivo, Setaria faberii
Procedure, shortened: as §1

Italian ryegrass = test: Test E Italian ryegrass; format: in vivo, Lolium multiflorum; settings: Preemergence; for I. Ryegrass plant response rating (0 to 100 scale): Rate 250 g/ha
green foxtail = test: Test E green foxtail; format: in vivo, Setaria viridis; settings: Preemergence; for Green foxtail plant response rating (0 to 100 scale): Rate 250 g/ha
[3] = Rate 125 g/ha, 0 to 100 scale (0 no effect, 100 complete control)
[4] = Rate 500 g/ha, 0 to 100 scale where 0 is no effect and 100 is complete control
[5] = Preemergence, Rate 62 g/ha, scale of 0 to 10 where 0 is no effect and 10 is complete control
[6] = Preemergence, Rate 250 g/ha, scale of 0 to 10 where 0 is no effect and 10 is complete control
[7] = Preemergence, Rate 500 g/ha, scale of 0 to 10 where 0 is no effect and 10 is complete control
[8] = Rate 62 g/ha, Postemergence, scale of 0 to 10 where 0 is no effect and 10 is complete control
[9] = Rate 125 g/ha, Postemergence, scale 0 to 10
[10] = Rate 125 g/ha, Preemergence, scale of 0 to 10 where 0 is no effect and 10 is complete control
[11] = Rate 500 g/ha, Postemergence, scale 0 to 10
[12] = Rate 62 g/ha, headed Pre-emergence (flood test species), scale 0 to 10 (0 no effect, 10 complete control)
[13] = Rate 125 g/ha, Pre-emergence, flood test species, scale 0 to 10 where 0 is no effect and 10 is complete control
[14] = Rate 250 g/ha, Pre-emergence, flood-test species, scale 0 to 10, 0 is no effect, 10 is complete control
[15] = Rate 500 g/ha, Pre-emergence, flood test species, scale 0 to 10 (0 no effect, 10 complete control)
[16] = Rate 500 g/ha, Postemergence, scale 0 to 10, 0 no effect, 10 complete control

`CC(C)N(C(=O)n1oc(=O)n(CCC(F)=C(F)F)c1=O)c1ccc(F)cc1` [Compound 218] was tested, and the “Plant response rating, Wheat (winter)” value (winter wheat [1]; Rate 125 g/ha) was 65, the “Wheat (winter) plant response rating” value (winter wheat [1]) was 70 and the “Plant response rating, Wheat (winter)” value (winter wheat [1]; Rate 500 g/ha) was 85. The “Plant response rating, Wheat (winter)” value (winter wheat [2]; [3]) was 50, the “Wheat (winter) plant response rating (0 to 100 scale)” value (winter wheat [2]) was 40 and the “Plant response rating, Wheat (winter)” value (winter wheat [2]; [4]) was 50. For the same compound, the “Plant response rating, Barley (winter)” value (winter barley; [3]) was 40, the “Barley (winter) plant response rating (0 to 100 scale)” value (winter barley) was 50 and the “Plant response rating, Barley (winter)” value (winter barley; [4]) was 65. For the same compound, the “Crabgrass plant response rating” value (crabgrass; [5]) was 4, the “Crabgrass plant response rating” value (crabgrass; [6]) was 6 and the “Plant response rating, Crabgrass” value (crabgrass; [7]) was 7. The “Crabgrass plant response rating” value (crabgrass; [8]) was 1, the “Crabgrass plant response rating” value (crabgrass; [9]) was 4 and the “Crabgrass plant response rating” value (crabgrass; [10]) was 4. The “Plant response rating (0 to 10; 0 is no effect, 10 is complete control), Crabgrass” value (crabgrass; Rate 250 g/ha, Postemergence) was 5, the “Crabgrass plant response rating” value (crabgrass; [11]) was 9 and the “Ducksalad plant response rating” value (duck salad; [12]) was 0. The “Ducksalad plant response rating” value (duck salad; [13]) was 0, the “Ducksalad plant response rating” value (duck salad; [14]) was 0 and the “Ducksalad plant response rating” value (duck salad; [15]) was 0. The “Plant response rating, Blackgrass” value (blackgrass; [3]) was 65, the “Blackgrass plant response rating (0 to 100 scale)” value (blackgrass) was 70 and the “Plant response rating, Blackgrass” value (blackgrass; [4]) was 100. The “Wheat plant response rating” value (wheat; [5]) was 0, the “Wheat plant response rating” value (wheat; [6]) was 0 and the “Plant response rating, Wheat” value (wheat; [7]) was 3. For the same compound, the “Wheat plant response rating” value (wheat; [8]) was 0, the “Wheat plant response rating” value (wheat; [9]) was 0 and the “Wheat plant response rating” value (wheat; [10]) was 0. For the same compound, the “Plant response rating (0 to 10; 0 is no effect, 10 is complete control), Wheat” value (wheat; Rate 250 g/ha, Postemergence) was 0, the “Plant response rating, Wild oat” value (wild oat; [3]) was 70 and the “Wild oat plant response rating (0 to 100 scale)” value (wild oat) was 65. The “Plant response rating, Wild oat” value (wild oat; [4]) was 70, the “Giant foxtail plant response rating” value (giant foxtail; [5]) was 9 and the “Giant foxtail plant response rating” value (giant foxtail; [6]) was 10. The “Plant response rating, Giant foxtail” value (giant foxtail; [7]) was 10, the “Giant foxtail plant response rating” value (giant foxtail; [8]) was 1 and the “Giant foxtail plant response rating” value (giant foxtail; [9]) was 5. For the same compound, the “Giant foxtail plant response rating” value (giant foxtail; [10]) was 9, the “Plant response rating (0 to 10; 0 is no effect, 10 is complete control), Giant foxtail” value (giant foxtail; Rate 250 g/ha, Postemergence) was 7 and the “Giant foxtail plant response rating” value (giant foxtail; [11]) was 8. For the same compound, the “Plant response rating, I. Ryegrass” value (Italian ryegrass; [3]) was 55, the “I. Ryegrass plant response rating (0 to 100 scale)” value (Italian ryegrass) was 60 and the “Plant response rating, I. Ryegrass” value (Italian ryegrass; [4]) was 70. The “Plant response rating, Green foxtail” value (green foxtail; [3]) was 30, the “Green foxtail plant response rating (0 to 100 scale)” value (green foxtail) was 55 and the “Plant response rating, Green foxtail” value (green foxtail; [4]) was 85.

With `CC(C)N(C(=O)n1oc(=O)n(C2CC2)c1=O)c1ccc(Cl)cc1` [Compound 241] the “Plant response rating, Wheat (winter)” value (winter wheat [1]; Rate 125 g/ha) was 20, the “Wheat (winter) plant response rating” value (winter wheat [1]) was 60 and the “Plant response rating, Wheat (winter)” value (winter wheat [1]; Rate 500 g/ha) was 50. The “Plant response rating, Wheat (winter)” value (winter wheat [2]; [3]) was 40, the “Wheat (winter) plant response rating (0 to 100 scale)” value (winter wheat [2]) was 50 and the “Plant response rating, Wheat (winter)” value (winter wheat [2]; [4]) was 60. For the same compound, the “Plant response rating, Barley (winter)” value (winter barley; [3]) was 40, the “Barley (winter) plant response rating (0 to 100 scale)” value (winter barley) was 50 and the “Plant response rating, Barley (winter)” value (winter barley; [4]) was 60. For the same compound, the “Crabgrass plant response rating” value (crabgrass; [5]) was 3, the “Crabgrass plant response rating” value (crabgrass; [6]) was 10 and the “Plant response rating, Crabgrass” value (crabgrass; [7]) was 10. The “Crabgrass plant response rating” value (crabgrass; [8]) was 2, the “Crabgrass plant response rating” value (crabgrass; [10]) was 7 and the “Plant response rating (0 to 10; 0 is no effect, 10 is complete control), Crabgrass” value (crabgrass; Rate 250 g/ha, Postemergence) was 8. The “Crabgrass plant response rating” value (crabgrass; [16]) was 9, the “Ducksalad plant response rating” value (duck salad; [12]) was 0 and the “Ducksalad plant response rating” value (duck salad; [13]) was 0. The “Ducksalad plant response rating” value (duck salad; [14]) was 0, the “Ducksalad plant response rating” value (duck salad; [15]) was 0 and the “Plant response rating, Blackgrass” value (blackgrass; [3]) was 60. For the same compound, the “Blackgrass plant response rating (0 to 100 scale)” value (blackgrass) was 100, the “Plant response rating, Blackgrass” value (blackgrass; [4]) was 98 and the “Wheat plant response rating” value (wheat; [5]) was 0. For the same compound, the “Wheat plant response rating” value (wheat; [6]) was 3, the “Plant response rating, Wheat” value (wheat; [7]) was 5 and the “Wheat plant response rating” value (wheat; [8]) was 0. The “Wheat plant response rating” value (wheat; [10]) was 0, the “Wheat plant response rating” value (wheat; [16]) was 8 and the “Plant response rating, Wild oat” value (wild oat; [3]) was 50. For the same compound, the “Wild oat plant response rating (0 to 100 scale)” value (wild oat) was 60, the “Plant response rating, Wild oat” value (wild oat; [4]) was 55 and the “Giant foxtail plant response rating” value (giant foxtail; [5]) was 10. For the same compound, the “Giant foxtail plant response rating” value (giant foxtail; [6]) was 10, the “Plant response rating, Giant foxtail” value (giant foxtail; [7]) was 10 and the “Giant foxtail plant response rating” value (giant foxtail; [8]) was 2. The “Giant foxtail plant response rating” value (giant foxtail; [10]) was 10, the “Plant response rating (0 to 10; 0 is no effect, 10 is complete control), Giant foxtail” value (giant foxtail; Rate 250 g/ha, Postemergence) was 6 and the “Giant foxtail plant response rating” value (giant foxtail; [16]) was 8. For the same compound, the “Plant response rating, I. Ryegrass” value (Italian ryegrass; [3]) was 60, the “I. Ryegrass plant response rating (0 to 100 scale)” value (Italian ryegrass) was 70 and the “Plant response rating, I. Ryegrass” value (Italian ryegrass; [4]) was 100. The “Plant response rating, Green foxtail” value (green foxtail; [3]) was 65, the “Green foxtail plant response rating (0 to 100 scale)” value (green foxtail) was 90 and the “Plant response rating, Green foxtail” value (green foxtail; [4]) was 90.
